The results in this text go back to ChEMBL document CHEMBL1158501, “Synthesis and structure-activity relationships of novel furazan-3,4-diamide analogs as potent anti-cancer agents” (Bioorg Med Chem Lett, 2010).

What is called IC50 is the concentration at which inhibition is half-maximal. A higher IC50 goes with weaker potency in that assay.

Assay [1] concerns U-87 MG. Description: Inhibition of human U87MG cells after 48 hrs. In kind it is functional, cell-based, U-87MG ATCC.
The test system of assay [2] is SW480. The experiment in a line: Inhibition of human SW480 cells after 48 hrs. It counts as functional, cell-based. The settings on record: SW480, 48 h.
Assay [3] concerns SW480. Description: Inhibition of human SW480 cells at >= IC50 after 48 hrs. It counts as functional.
Assay [4] deals with U-87 MG. The experiment in a line: Inhibition of human U87MG cells at >= IC50 after 48 hrs. It counts as functional, U-87MG ATCC.

Regarding `O=C(Nc1cscc1NC(=O)c1ccc(C(F)(F)F)cc1)c1ccc(C(F)(F)F)cc1`, the IC50 with U-87 MG [1] and with SW480 [2] was > 8 µM each time.

For `O=C(Nc1nonc1NCc1ccc(C(F)(F)F)cc1)c1ccc(C(F)(F)F)cc1`, the IC50 is 18.2 µM in the assay with U-87 MG [1] and 18.5 µM in the assay with SW480 [2].

Regarding `O=C(Nc1nonc1NC(=O)c1ccc(F)cc1)c1ccc(F)cc1`, the IC50 amounted to 6 µM in the assay with U-87 MG [1] and 10 µM with SW480 [2]. The “inhibition (INH)” value with SW480 [3] is on record as 50%.

On to `O=C(CN1CCOCC1)Nc1nonc1NC(=O)CN1CCOCC1`, for which the IC50 with U-87 MG [1] and in the assay on SW480 [2] was > 200 µM each time.

For `O=C(Nc1nonc1NC(=O)c1ccc(Br)cc1)c1ccc(Br)cc1`, the IC50 with U-87 MG [1] amounted to 14 µM; in the assay on SW480 [2], 4 µM. In addition, the “inhibition (INH)” value in the assay on U-87 MG [4] is reported as 77%; in the assay with SW480 [3], 50%.

In the case of `O=C(Nc1nonc1NC(=O)c1ccc(I)cc1)c1ccc(I)cc1`, the values for the half-inhibitory concentration (IC50) in the assay with U-87 MG [1] and with SW480 [2] were 1 µM and 2 µM, respectively. Also, the “inhibition (INH)” value amounted to 70% in the assay on U-87 MG [4] and 50% in the assay with SW480 [3].

`O=C(Nc1ccccc1NC(=O)c1ccc(C(F)(F)F)cc1)c1ccc(C(F)(F)F)cc1`: the IC50 with U-87 MG [1] and in the assay with SW480 [2] was > 8 µM each time.

`O=C(Nc1nonc1NC(=O)c1ccccc1)c1ccccc1`: the IC50 in the assay with U-87 MG [1] is 122 µM; in the assay with SW480 [2] it was 137 µM.

Regarding `FC(F)(F)c1ccc(CNc2nonc2NCc2ccc(C(F)(F)F)cc2)cc1`, the figures for the IC50 with U-87 MG [1] and in the assay with SW480 [2] were 20.6 µM and 22.9 µM, respectively.

With `O=C(Nc1nonc1NC(=O)C1CCCCC1)C1CCCCC1`, the IC50 in the assay with U-87 MG [1] and with SW480 [2] was > 20 µM throughout.

As for `O=C(Nc1nonc1NC(=O)c1ccco1)c1ccco1`, the IC50 in the assay with U-87 MG [1] and with SW480 [2] was > 200 µM throughout.

Take `O=C(Nc1nonc1NC(=O)c1ccc(Cl)c(Cl)c1)c1ccc(Cl)c(Cl)c1`: the IC50 in the assay with U-87 MG [1] was 24 µM; in the assay with SW480 [2], 39.7 µM.

Consider `O=C(Nc1nonc1NC(=O)c1ccc(C(F)(F)F)cc1)c1ccc(C(F)(F)F)cc1`, for which the IC50 with U-87 MG [1] was found to be 14.6 µM; with SW480 [2], 11.2 µM.

As for `O=C(Nc1nonc1NC(=O)c1ccccc1C(F)(F)F)c1ccccc1C(F)(F)F`, the values for the IC50 in the assay on U-87 MG [1] and in the assay with SW480 [2] were > 100 µM and 89.3 µM, respectively.

`Nc1nonc1NC(=O)c1ccc(C(F)(F)F)cc1`: the IC50 in the assay with U-87 MG [1] and in the assay with SW480 [2] was > 200 µM each time.

For `O=C(CCl)Nc1nonc1NC(=O)CCl`, the IC50 with U-87 MG [1] worked out at 17.1 µM; with SW480 [2] it was 7.4 µM.

`COc1cccc(C(=O)Nc2nonc2NC(=O)c2cccc(OC)c2)c1`: the IC50 in the assay with U-87 MG [1] was 70.7 µM; in the assay with SW480 [2], 71 µM.

Turning to `O=C(Nc1nonc1NC(=O)c1ccc(Cl)cc1)c1ccc(Cl)cc1`, the IC50 with U-87 MG [1] was 14 µM; in the assay with SW480 [2], 8 µM. For the same compound, the “inhibition (INH)” value was 70% in the assay with U-87 MG [4] and 50% in the assay with SW480 [3].

Regarding `O=C(Nc1nonc1NC(=O)C1CCCC1)C1CCCC1`, the IC50 in the assay on U-87 MG [1] and with SW480 [2] was > 200 µM each time.

For `O=C(Nc1nonc1NC(=O)c1cc(C(F)(F)F)cc(C(F)(F)F)c1)c1cc(C(F)(F)F)cc(C(F)(F)F)c1`, the values for the concentration for half-maximal inhibition (IC50) in the assay with U-87 MG [1] and in the assay with SW480 [2] were 17.7 µM and 10.8 µM, respectively.

In the case of `COc1ccc(C(=O)Nc2nonc2NC(=O)c2ccc(OC)cc2)cc1`, the IC50 in the assay with U-87 MG [1] and in the assay with SW480 [2] was > 40 µM throughout.

Take `O=C(Nc1nonc1NC(=O)C(Cl)(Cl)Cl)C(Cl)(Cl)Cl`: the IC50 in the assay with U-87 MG [1] and with SW480 [2] was > 200 µM each time.

For the compound `O=C(Nc1nonc1NC(=O)c1c(F)c(F)c(F)c(F)c1F)c1c(F)c(F)c(F)c(F)c1F`, the IC50 came to 25.5 µM with U-87 MG [1] and 17.2 µM with SW480 [2].

On to `Cc1ccc(C(=O)Nc2nonc2NC(=O)c2ccc(C)cc2)cc1`, for which the IC50 with U-87 MG [1] and in the assay with SW480 [2] was > 40 µM each time.

With `O=C(Nc1n[nH]c(O)c1NC(=O)c1ccc(C(F)(F)F)cc1)c1ccc(C(F)(F)F)cc1`, the IC50 in the assay with U-87 MG [1] and in the assay on SW480 [2] was > 200 µM throughout.

Take `CC(C)=CC(=O)Nc1nonc1NC(=O)C=C(C)C`: the IC50 in the assay with U-87 MG [1] and in the assay with SW480 [2] was > 200 µM in each case.

Turning to `O=C(Nc1nonc1NC(=O)c1cccc(C(F)(F)F)c1)c1cccc(C(F)(F)F)c1`, the IC50 in the assay on U-87 MG [1] and in the assay on SW480 [2] was > 10 µM throughout.
